Source: US10772876B2, “Enhancers of Notch signaling and the use thereof in the treatment of cancers and malignancies medicable by upregulation of Notch” (XENIOPRO GmbH, priority 2016, dated 2020)
“Also recorded” adds a separate entry of the source.

Columns and labels:
[1] = system: Notch1 full-length receptor; assay: Notch1 full-length receptor driven luciferase reporter assay (HeLa co-culture with DLL4 ligand expressing HeLa cells); assay type: cell-based; settings: for Notch signaling relative to the DMSO control: control treatments, FIG. 1
Description: As used herein, the term “enhancing Notch signaling” refers to an effect on a cellular Notch-driven luciferase reporter assay, by which the Notch signaling enhancing properties of the compounds of the invention are determined. The Notch-driven luciferase reporter assay consists of HeLa cells engineered to express the Notch1 full length receptor, and to harbor a CSL-driven firefly luciferase expression construct as well as a Notch independent Renilla luciferase construct for the purpose of normalisation. These cells are co-cultured with engineered HeLa cells expressing the Notch ligand D114 to induce Notch signaling, thus to induce the expression of the firefly luciferase enzyme. The intensity of a luciferase-driven reporter signal is considered as a measure for Notch signaling.
A compound is considered as having an effect of enhancing Notch signaling if said compound results relative to DMSO in ≥1.5-fold increase, preferably in ≥2.0-fold increase, more preferably in ≥2.5-fold increase and most preferably in ≥3.0-fold increase of the Luciferase-driven reporter signal in the frame of the named Notch-dependent luciferase reporter assay.
FIG. 1. […] The indicated compounds were tested at 10 μM concentration in a Notch-driven luciferase reporter assay. HeLa cells had been engineered to express the Notch1 full-length receptor, the firefly luciferase (expression dependent on Notch signaling) and the renilla luciferase (expression independent on Notch signaling). Cells were co-cultured in a 96 well-plate with DLL4 ligand expressing HeLa cells to induce Notch signaling and simultaneously treated with DMSO or indicated compounds for 20 h. Notch signaling activation was then quantified by measuring luciferase-dependent luminescence intensities upon treatment with appropriate substrates. The firefly values were normalized against the renilla values to obtain the relative luminescence intensities (represented by the bars).
(§1) A brief description of the assay is given in the description of FIG. 1. If not stated differently, all assays were performed using a Notch1 full-length receptor driven reporter system. Values are normalized against DMSO. a) V126 (black rhombi) was tested at the indicated concentrations. […] The control readouts for DMSO (black), CB103 (white), V126 at 10 μM and V126 at 1 μM (diagonal lines) were taken as usual after incubation for 20 h. c) V126 was tested in combination with an equimolar amount of the y-secretase inhibitor DAPT or the Notch inhibitor CB103 at 10 μM concentration each. d) V126 and the indicated compounds were tested at 10 μM in a luciferase reporter assay driven by the Notch2 receptor isoform. e) V126 and the indicated compounds were tested at 10 μM in a luciferase assay driven by the constitutively active form of the Notch1 receptor (N1ICD, Notch1 intracellular domain).

SCC13 cells = assay: Involucrin protein expression in SCC13 cells (Western Blot); assay type: cell-based, human; settings: 10 μM, 48 h, β-actin as loading control
Description: Cells were treated with DMSO or V126 at a concentration of 10 μM for 48 h. Total cell lysates were applied on Western Blot analysis using β-actin as loading control.
Notch activation in the skin is known to drive differentiation of keratinocytes resulting in the induction of differentiation markers such as involucrin (C. Nowell, Cold Spring Harb Perspect Med. 2013, 3, 12), (G. P. Dotto, Oncogene 2008, 27, 5115-5123). […] In the spleen, marginal zone B-cells (MZBs) and follicular B-cells (FoBs) are the two main types of mature B-cells, both of which develop from the same precursor cells, namely the transitional B-cells (TBs). Notch2 signaling was reported to play a crucial role in the development of MZBs (S. Pillai, Nat. Rev. Immunol. 2009, 9, 767-777) and increased Notch2 signaling in the spleen leads to an expansion of the MZB compartment (F. Hampel, Blood 2011, 118, 24, 6321-6331). In contrast, the development of FoBs is not dependent on Notch signaling. To evaluate the effect of V126 in vivo, C57BL/6N mice were injected intraperitoneally with 25 mg/kg V126 once a day for one week. The impact of V126 on the different B-cell compartments in these mice was analyzed by flow cytometry on splenocytes, showing that V126 was capable to double the number of MZBs as compared to the control, whereas the FoB numbers were not affected (FIG. 4).

CD4 T cells = assay: IFN-γ production and secretion of CD4 T cells under Th1 polarizing conditions; assay type: cell-based, mice; settings: 10 μM, 96 hours, intracellular IFN-γ and Elisa of culture supernatants
Description: FIGS. 5A-5C The Notch signaling enhancing compound V126 induces increased IFNy production and secretion in vitro. CD4 T cells isolated from naive CS7B/6 mice were cultured on plate bound α-CD3/α-CD28 (both 0.25μg/m1) under Th1 polarizing conditions (rlL-12, (5ng/ml) and anti-IL-4 (clone:11B11; […])) in the presence of DMSO, DAPT as y-secretase inhibitor and V126 at 10 μM. 96 hours after initiation of the culture, intracellular IFN-y levels a) and CD25 surface expression b) were assessed on PMA/lonomycin stimulated CD4 T cells. c) IFN-y cytokine levels were assessed in culture supernatants by Elisa under the same conditions as in a) and b).

luciferase enzyme = biological target: T1, luciferase enzyme (Photinus pyralis, UniProt P08659); assay: Direct influence on luciferase enzyme activity (treatment 5 min prior to readout of the Notch reporter assay); assay type: cell-based; settings: 10 μM and 1 μM, 5 min prior to the readout, FIG. 2b
T1 construct: expressed in transfected cells; host or cells: HeLa cells engineered with Notch1 full-length receptor, firefly and Renilla luciferase constructs, co-cultured with DLL4-expressing HeLa cells
T1 sequence (P08659 whole entry): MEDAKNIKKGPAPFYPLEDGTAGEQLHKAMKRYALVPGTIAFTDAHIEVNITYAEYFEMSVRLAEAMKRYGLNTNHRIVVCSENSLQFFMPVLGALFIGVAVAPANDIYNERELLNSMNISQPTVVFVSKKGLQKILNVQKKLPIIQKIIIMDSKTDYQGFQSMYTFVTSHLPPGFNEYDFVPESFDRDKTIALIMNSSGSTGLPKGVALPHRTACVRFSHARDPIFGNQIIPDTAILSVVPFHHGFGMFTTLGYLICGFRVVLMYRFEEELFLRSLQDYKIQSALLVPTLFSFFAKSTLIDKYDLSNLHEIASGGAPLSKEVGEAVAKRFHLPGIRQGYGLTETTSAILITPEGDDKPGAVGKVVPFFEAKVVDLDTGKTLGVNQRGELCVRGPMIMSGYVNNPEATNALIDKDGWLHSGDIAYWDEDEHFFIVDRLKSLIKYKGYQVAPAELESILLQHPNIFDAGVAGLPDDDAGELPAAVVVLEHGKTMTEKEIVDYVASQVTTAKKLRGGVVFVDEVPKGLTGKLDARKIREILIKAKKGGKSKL
Description: as §1
(§2) To rule out that V126 is directly enhancing the activity of the luciferase enzyme, the Notch reporter assay was challenged by applying V126 treatment immediately prior to the readout. […] Moreover, the Notch-enhancing activity of V126 could be partially and completely rescued by combinational equimolar treatment with the γ-secretase inhibitor DAPT or the Notch inhibitor CB103, respectively, further confirming the ability of V126 to upregulate Notch signaling (FIG. 2c).

[2] = system: Notch2 full-length receptor; assay: Luciferase reporter assay driven by the Notch2 receptor isoform (N2FL); assay type: cell-based; settings: 10 μM, FIG. 2d
Description: as §1, §2

[3] = system: splenic marginal zone B-cells (MZB); assay: Splenic B-cell compartments in mice by flow cytometry; assay type: in vivo, C57BL/6N mice; settings: 25 mg/kg intraperitoneal once a day for one week
Description: C57BL/6N mice were treated with 25 mg/kg V126 by intraperitoneal injection once a day for one week. a) Spleen cells were analyzed by flow cytometry. Shown are two representative plots of control (Ctrl., n=5) and V126 (n=4) treatments displaying the B220+cell (total B-cell) population. The gates encircle the respective MZB, FoB, and TB fractions with the corresponding numbers indicating the relative proportions (in percentage) of cells out of the B220+population. b) The bar diagrams quantify the relative MZB percentages from a) (left), and the recalculated total numbers of splenic MZBs (right). FoBs: Follicular B-cells, TBs: Transitional B-cells, see text.
Notch activation in the skin is known to drive differentiation of keratinocytes resulting in the induction of differentiation markers such as involucrin (C. Nowell, Cold Spring Harb Perspect Med. 2013, 3, 12), (G. P. Dotto, Oncogene 2008, 27, 5115-5123). […] In the spleen, marginal zone B-cells (MZBs) and follicular B-cells (FoBs) are the two main types of mature B-cells, both of which develop from the same precursor cells, namely the transitional B-cells (TBs). […] The impact of V126 on the different B-cell compartments in these mice was analyzed by flow cytometry on splenocytes, showing that V126 was capable to double the number of MZBs as compared to the control, whereas the FoB numbers were not affected (FIG. 4).

[4] = system: N1ICD, Notch1 intracellular domain; assay: Luciferase assay driven by the constitutively active form of the Notch1 receptor (N1ICD); assay type: cell-based; settings: 10 μM, FIG. 2e
Description: as §1, §2

C[C@H](NC(=O)Cc1cc(F)cc(F)c1)C(=O)N[C@H](C(=O)OC(C)(C)C)c1ccccc1 [DAPT, reference compound]
Notch signaling relative to the DMSO control ([1]; 20 h): decrease in Notch signaling

CCCC(CCC)C(=O)O [valproic acid, reference compound]
effect on Notch signaling ([1]; concentrations up to 40 μM, FIG. 2a): did not show any effect

CC(C)(C)c1ccc(Oc2ccc(N)cn2)cc1 [CB103, reference compound]
Notch signaling relative to the DMSO control ([1]; 20 h): decrease in Notch signaling

CC(C)(C)c1ccc(Oc2ccc(C(=O)O)cc2)cc1 [V126, 4-(4-(tert-Butyl)phenoxy)benzoic acid]
luciferase values after treatment for 20 h in the very same readout ([1]; 10 μM and 1 μM, 20 h, FIG. 2b): expected upregulation | rescue of the Notch-enhancing activity by combinational equimolar treatment with CB103 ([1]; V126 plus Notch inhibitor CB103, 10 μM each, FIG. 2c): completely | rescue of the Notch-enhancing activity by combinational equimolar treatment with DAPT ([1]; V126 plus γ-secretase inhibitor DAPT, 10 μM each, FIG. 2c): partially | enhancement of Notch signaling ([1]; concentration of 1↔M, FIG. 2a): strongly enhanced Notch signaling | expression of the differentiation marker involucrin at the protein level (SCC13 cells): increased protein expression | IFNγ production and secretion (CD4 T cells): increased | luciferase values after short-term treatment immediately prior to the readout (luciferase enzyme): in the range of the DMSO control level | enhancement of Notch2 receptor driven signaling [2]: enhance signaling derived from different Notch receptor isoforms | FoB (follicular B-cell) numbers [3]: not affected | number of splenic MZBs compared to the control [3]: increase; also recorded: double | enhancement of N1ICD driven signaling [4]: enhance the signaling cascade taking place downstream of ligand-mediated activation of Notch signaling
